Reference: publication PMC3090393, “New Noncovalent Inhibitors of Penicillin-Binding Proteins from Penicillin-Resistant Bacteria” (PLoS ONE, 2011)
≈ marks a conversion by molar mass, not a printed value.

Experiments:
PBP2a = target: T1, PBP2a (Staphylococcus aureus, UniProt P07944); assay: PBP2a enzymatic inhibition assay (fluorescein-labeled ampicillin, residual penicillin binding activity); type: biochemical, Staphylococcus aureus ATCC 43300; conditions: for remaining activity at 1000 µM: 4 h, residual activity of the enzyme at 1 mM inhibitor, 0.01% Triton X-100, mean of three experiments, read-out: PBP2a RA [%]; for IC50: in the presence of 0.01% Triton X-100
T1 construct: made in house
T1 sequence (P07944 whole entry): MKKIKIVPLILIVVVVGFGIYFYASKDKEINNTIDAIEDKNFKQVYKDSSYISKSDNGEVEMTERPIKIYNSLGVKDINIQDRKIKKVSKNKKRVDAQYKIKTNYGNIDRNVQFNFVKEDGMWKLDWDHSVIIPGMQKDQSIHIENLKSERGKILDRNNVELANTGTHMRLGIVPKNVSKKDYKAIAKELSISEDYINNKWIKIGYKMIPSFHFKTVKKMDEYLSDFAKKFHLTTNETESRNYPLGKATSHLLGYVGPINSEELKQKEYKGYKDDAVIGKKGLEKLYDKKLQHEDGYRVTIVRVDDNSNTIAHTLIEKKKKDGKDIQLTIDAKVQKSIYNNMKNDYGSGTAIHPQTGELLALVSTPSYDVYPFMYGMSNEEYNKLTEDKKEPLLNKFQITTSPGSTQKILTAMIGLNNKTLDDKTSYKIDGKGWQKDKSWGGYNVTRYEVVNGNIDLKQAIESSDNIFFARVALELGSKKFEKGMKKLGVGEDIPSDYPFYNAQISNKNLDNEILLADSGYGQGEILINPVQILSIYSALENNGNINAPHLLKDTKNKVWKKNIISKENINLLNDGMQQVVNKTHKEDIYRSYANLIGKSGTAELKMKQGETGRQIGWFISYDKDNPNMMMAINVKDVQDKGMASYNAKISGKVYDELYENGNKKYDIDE
Description: (§1) PBP2a from Staphylococcus aureus ATCC 43300 and PBP5fm from Enterococcus faecium D63r were overproduced and purified as described previously, [18].
(§2) Each of the purified PBPs (2.5 µM) were first incubated with 1 mM potential inhibitor in 100 mM phosphate buffer, 0.01% Triton X-100[19], pH 7, for 4 h at 30°C. Then, 25 µM fluorescein-labeled ampicillin[20] was added to detect the residual penicillin binding activity (RA). The samples were further incubated for 30 min at 37°C in a total volume of 20 µL. Denaturation buffer was added (0.1 M Tris/HCl, pH 6.8, containing 25% glycerol, 2% SDS, 20% β-mercaptoethanol and 0.02% bromophenol blue) and the samples were heated to 100°C for 1 min. The samples were then loaded onto a 10% SDS-acrilamide gel (10×7 cm) and electrophoresis was performed for 45 min at 180 V (12 mA). Detection and quantification of the RAs were with Molecular Image FX equipment and Quantity One software (BioRad, Hercules, CA, USA). Three independent experiments were carried out for each inhibitor.

PBP2x 5204 = PBP2x 5204 (Streptococcus pneumoniae, UniProt P59676); assay: PBP2x 5204 enzymatic inhibition assay (S2d hydrolysis, DTNB); type: biochemical, Streptococcus pneumoniae strain 5204; conditions: for PBP2x5204 RA [%]: 240 min
Sequence of PBP2x 5204 (P59676 49-750): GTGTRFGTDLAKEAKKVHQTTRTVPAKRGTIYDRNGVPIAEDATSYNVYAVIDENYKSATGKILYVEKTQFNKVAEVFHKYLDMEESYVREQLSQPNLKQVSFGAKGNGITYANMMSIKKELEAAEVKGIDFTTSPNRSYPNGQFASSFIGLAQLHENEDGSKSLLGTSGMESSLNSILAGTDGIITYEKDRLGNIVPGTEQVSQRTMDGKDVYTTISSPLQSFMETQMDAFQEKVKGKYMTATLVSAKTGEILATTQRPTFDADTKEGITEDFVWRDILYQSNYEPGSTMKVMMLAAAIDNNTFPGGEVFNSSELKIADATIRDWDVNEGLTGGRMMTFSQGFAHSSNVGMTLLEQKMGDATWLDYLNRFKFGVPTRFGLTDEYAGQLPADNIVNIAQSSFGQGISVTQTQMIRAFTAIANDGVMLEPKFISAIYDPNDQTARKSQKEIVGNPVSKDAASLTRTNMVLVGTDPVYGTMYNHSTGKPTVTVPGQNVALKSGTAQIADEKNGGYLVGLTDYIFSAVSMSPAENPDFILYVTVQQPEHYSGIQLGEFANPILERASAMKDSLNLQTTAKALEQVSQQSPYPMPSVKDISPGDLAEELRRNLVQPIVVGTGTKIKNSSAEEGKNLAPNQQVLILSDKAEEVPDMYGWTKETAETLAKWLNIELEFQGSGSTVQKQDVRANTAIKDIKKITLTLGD
Description: PBP2x-5204 from Streptococcus pneumonia and N-benzoyl-D-alanyl-thioglycolate S2d[21], [22] were prepared as previously described. All assays with PBP2x 5204 were carried out in 96-well microtiter plates (Brand, Wertheim, Germany). PBP2x 5204 (0.6 µM) was incubated in the presence of the potential inhibitors in 10 mM sodium phosphate buffer (pH 7.0) containing 70 mM D-alanine and 0.01 mg/mL BSA, for 4 h at 25°C. This preincubation was used to also detect slow binding inhibitors. After the preincubation, the RA of PBP2x 5204 was determined. The initial rate of hydrolysis of 1 mM S2d in the presence of 1 mM DTNB was determined by monitoring the increase in absorbance at 412 nm (DTNB: ε[Δ ε] = […]) using a microplate absorbance reader (Power Wave X, Biotek Instruments, Winooski, U.S.A.). The rate of spontaneous hydrolysis of S2d in the presence of the potential inhibitors was also determined in the absence of PBP2x 5204. All of the assays were carried out in triplicate. The determination of the RA of PBP2x 5204 in the absence of inhibitors was carried out six times on each plate. A test compound was considered as an inhibitor if the RA was <80%. In this case, to reveal false positives, the assays were also carried out under the same conditions in the presence of 0.01% Triton X-100. As described in the literature, promiscuous inhibitors (false positives) are slow binding, noncompetitive inhibitors. To avoid detailed kinetic investigations, it is possible to identify such compounds by carrying out the assays in the presence of Triton X-100[14], [19]. Promiscuous inhibitors show no inhibition in the presence of Triton X-100. The IC50 values in the presence of Triton X-100 were determined if the RAs were <50%. (RA: ∼50%, IC50∼c, c: concentration of compound in the assay; RA >50%, IC50 > c). The RA was measured over a range of concentrations, from which the IC50 values were determined by non-linear regression analysis, using Sigma Plot (Systat software) and fitting the data to the equation y = y0+(a×b)/(b+x)[23].

PBP5fm = PBP5fm (Enterococcus faecium, UniProt Q47759); assay: PBP5fm enzymatic inhibition assay (fluorescein-labeled ampicillin, residual penicillin binding activity); type: biochemical, Enterococcus faecium D63r; conditions: for activity at 1000 µM: 4 h, residual activity of the enzyme at 1 mM inhibitor, 0.01% Triton X-100, read-out: PBP5fm RA [%]
Sequence of PBP5fm (Q47759 entry or part of it): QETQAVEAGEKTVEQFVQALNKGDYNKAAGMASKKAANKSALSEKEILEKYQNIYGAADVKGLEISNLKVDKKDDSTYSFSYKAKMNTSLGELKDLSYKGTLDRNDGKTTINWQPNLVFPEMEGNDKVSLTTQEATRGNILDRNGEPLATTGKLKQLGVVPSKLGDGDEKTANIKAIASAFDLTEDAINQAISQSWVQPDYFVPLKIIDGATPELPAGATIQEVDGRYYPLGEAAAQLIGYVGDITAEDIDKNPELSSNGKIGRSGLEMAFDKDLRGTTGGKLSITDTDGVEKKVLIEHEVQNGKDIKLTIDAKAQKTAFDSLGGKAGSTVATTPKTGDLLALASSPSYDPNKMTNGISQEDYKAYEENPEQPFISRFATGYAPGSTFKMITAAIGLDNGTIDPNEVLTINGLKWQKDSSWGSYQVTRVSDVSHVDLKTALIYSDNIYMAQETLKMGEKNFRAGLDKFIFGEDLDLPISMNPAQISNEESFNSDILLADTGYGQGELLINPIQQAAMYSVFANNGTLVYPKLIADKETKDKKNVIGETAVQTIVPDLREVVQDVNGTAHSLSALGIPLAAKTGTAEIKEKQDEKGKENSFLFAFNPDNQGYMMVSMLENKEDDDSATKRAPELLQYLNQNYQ
Description: as §1, §2

[1] = tested on: Bacillus subtilis ATCC 6633; assay: In-vitro antibacterial activity (MIC, broth microdilution); type: cell-based; conditions: ATCC6633
Description: (§3) Determination of the antibacterial activities was carried out on microtiter plates, in 200 µL (final volume) of Müeller-Hinton Broth (MHB), following EUCAST (European Committee on Antimicrobial Susceptibility testing)/CLSI (Clinical and Laboratory Standard Institute) recommended procedures, [25]. The compounds were solubilized in MHB, just before use. Inocula were prepared for each strain by resuspending isolated colonies from 18 h cultured plates. Equivalents of 0.5 Mac Farland turbidity standards (approximately 1×10^8 CFU mL^−1) were prepared in saline solution ([…]) and then diluted 200-fold in MBH.

[2] = tested on: Citrobacter freundii ATCC 8090; assay: as above; type: cell-based; conditions: ATCC8090
Description: as §3

[3] = tested on: Enterococcus faecalis ATCC 29212; assay: as above; type: cell-based; conditions: ATCC29212
Description: as §3

[4] = tested on: Enterococcus faecalis ATCC 7937; assay: as above; type: cell-based; conditions: ATCC7937
Description: as §3

[5] = tested on: Enterococcus faecium ATCC 19434; assay: as above; type: cell-based; conditions: ATCC19434
Description: as §3

[6] = tested on: Enterococcus hirae ATCC 8790; assay: as above; type: cell-based; conditions: ATCC8790
Description: as §3

[7] = tested on: Escherichia coli ATCC 8739; assay: as above; type: cell-based; conditions: ATCC8739
Description: as §3

[8] = tested on: Klebsiella pneumoniae ATCC 13883; assay: as above; type: cell-based; conditions: ATCC13883
Description: as §3

[9] = tested on: Listeria innocua ATCC 33090; assay: as above; type: cell-based; conditions: ATCC33090
Description: as §3

[10] = tested on: Listeria monocytogenes ATCC 14780; assay: as above; type: cell-based; conditions: ATCC14780
Description: as §3

[11] = tested on: Micrococcus luteus ATCC 9341; assay: as above; type: cell-based; conditions: ATCC9341
Description: as §3

[12] = tested on: Proteus mirabilis ATCC 29936; assay: as above; type: cell-based; conditions: ATCC29936
Description: as §3

[13] = tested on: Pseudomonas aeruginosa ATCC 27853; assay: as above; type: cell-based; conditions: ATCC27853
Description: as §3

[14] = tested on: Staphylococcus aureus ATCC 25923; assay: as above; type: cell-based; conditions: ATCC25923
Description: as §3

[15] = tested on: Staphylococcus aureus ATCC 43300 (MRSA); assay: as above; type: cell-based
Description: as §3

[16] = tested on: Staphylococcus aureus mp 1 (inducible MRSA); assay: as above; type: cell-based
Description: as §3

[17] = tested on: Staphylococcus epidermidis ATCC 12228; assay: as above; type: cell-based; conditions: ATCC12228
Description: as §3

[18] = tested on: Streptococcus pneumoniae ATCC 33400; assay: as above; type: cell-based; conditions: ATCC33400
Description: as §3

[19] = tested on: Streptococcus pneumoniae ATCC 49619; assay: as above; type: cell-based; conditions: ATCC49619
Description: as §3

[20] = tested on: Streptococcus pneumoniae D39; assay: as above; type: cell-based
Description: as §3

[21] = tested on: panel of five Gram-negative and 15 Gram-positive bacterial strains; assay: In-vitro antibacterial activity (MIC), whole panel; type: cell-based; conditions: summary over the whole panel; read-out: MICs for all of the bacterial strains under investigation
Description: as §3

[22] = residual activity of the enzyme at 1 mM inhibitor

SMILES	remaining activity at 1000 µM (PBP2a) [%]	PBP2x5204 RA [%] (PBP2x 5204; [22])	activity at 1000 µM (PBP5fm) [%]	MIC [1] [µg/mL]	MIC [2] [µg/mL]	MIC [3] [µg/mL]	MIC [4] [µg/mL]	MIC [5] [µg/mL]	MIC [6] [µg/mL]	MIC [7] [µg/mL]	MIC [8] [µg/mL]	MIC [9] [µg/mL]	MIC [10] [µg/mL]	MIC [11] [µg/mL]	MIC [12] [µg/mL]	MIC [13] [µg/mL]	MIC [14] [µg/mL]	MIC [15] [µg/mL]	MIC [16] [µg/mL]	MIC [17] [µg/mL]	other results
CCOc1ccc(S(=O)(=O)Nc2ccc(C(=O)O)cc2)cc1 [compound 5, 4-(4-Ethoxyphenylsulfonamido)benzoic acid]	86	81	73	–	–	–	–	–	–	–	–	–	–	–	–	–	–	–	–	–	–
CCCOc1ccc(C(=O)Nc2ccc(O)cc2C(=O)O)cc1 [compound 7, 5-Hydroxy-2-(4-propoxybenzamido)benzoic acid]	74	65	72	–	–	–	–	–	–	–	–	–	–	–	–	–	–	–	–	–	–
CC1(C)S[C@@H]2[C@H](NC(=O)[C@H](N)c3ccccc3)C(=O)N2[C@H]1C(=O)O [Ampicillin, reference compound]	–	–	–	0.5 (≈ 1.43 µM)	128 (≈ 366 µM)	2 (≈ 5.72 µM)	2 (≈ 5.72 µM)	64 (≈ 183 µM)	64 (≈ 183 µM)	4 (≈ 11.4 µM)	256 (≈ 733 µM)	0.25 (≈ 0.715 µM)	0.5 (≈ 1.43 µM)	0.5 (≈ 1.43 µM)	2 (≈ 5.72 µM)	> 1020	0.25 (≈ 0.715 µM)	1020 (≈ 2930 µM)	1020 (≈ 2930 µM)	16 (≈ 45.8 µM)	MIC [18]: 0.03 µg/mL (≈ 0.0859 µM); MIC [19]: 0.06 µg/mL (≈ 0.172 µM); MIC [20]: 0.06 µg/mL (≈ 0.172 µM)
CCCOc1cccc(C(=O)Nc2ccc(O)cc2C(=O)O)c1 [compound 11, 5-Hydroxy-2-(3-propoxybenzamido)benzoic acid]	70	118	61	–	–	–	–	–	–	–	–	–	–	–	–	–	–	–	–	–	–
CCCOc1cccc(C(=O)Nc2ccc(C)cc2C(=O)O)c1 [compound 10, 5-Methyl-2-(3-propoxybenzamido)benzoic acid]	17	121	69	256 (≈ 817 µM)	> 512	256 (≈ 817 µM)	256 (≈ 817 µM)	128 (≈ 408 µM)	128 (≈ 408 µM)	> 512	> 512	256 (≈ 817 µM)	32 (≈ 102 µM)	256 (≈ 817 µM)	> 512	> 512	128 (≈ 408 µM)	256 (≈ 817 µM)	256 (≈ 817 µM)	128 (≈ 408 µM)	IC50 (PBP2a): 680 µM; MIC [18]: 2 µg/mL (≈ 6.38 µM); MIC [19]: 2 µg/mL (≈ 6.38 µM); MIC [20]: 2 µg/mL (≈ 6.38 µM)
CCCOc1cccc(C(=O)Nc2ccccc2C(=O)O)c1 [compound 12, 2-(3-Propoxybenzamido)benzoic acid]	47	97	34	> 512	> 512	256 (≈ 855 µM)	> 512	> 512	256 (≈ 855 µM)	> 512	> 512	> 512	> 512	256 (≈ 855 µM)	> 512	> 512	512 (≈ 1710 µM)	512 (≈ 1710 µM)	512 (≈ 1710 µM)	256 (≈ 855 µM)	IC50 (PBP2a): 910 µM; IC50 (PBP5fm; in the presence of 0.01% Triton X-100): > 1000 µM; MIC [18]: 256 µg/mL (≈ 855 µM); MIC [19]: 256 µg/mL (≈ 855 µM); MIC [20]: 256 µg/mL (≈ 855 µM); MIC [21]: ≥ 256 µg/mL
CCCOc1ccc(C(=O)Nc2ccc(Br)cc2C(=O)O)cc1 [compound 6, 5-Bromo-2-(4-propoxybenzamido)benzoic acid]	0	41	68	128 (≈ 338 µM)	> 512	32 (≈ 84.6 µM)	64 (≈ 169 µM)	256 (≈ 677 µM)	32 (≈ 84.6 µM)	> 512	> 512	64 (≈ 169 µM)	64 (≈ 169 µM)	32 (≈ 84.6 µM)	> 512	> 512	16 (≈ 42.3 µM)	128 (≈ 338 µM)	128 (≈ 338 µM)	16 (≈ 42.3 µM)	IC50 (PBP2a): 210 µM; MIC [18]: 64 µg/mL (≈ 169 µM); MIC [19]: 32 µg/mL (≈ 84.6 µM); MIC [20]: 16 µg/mL (≈ 42.3 µM)
O=S(=O)(Nc1ccc(O)cc1)c1cccc2cccnc12 [compound 3, N-(4-Hydroxyphenyl)quinoline-8-sulfonamide]	67	80	65	–	–	–	–	–	–	–	–	–	–	–	–	–	–	–	–	–	–
CCCOc1ccc(C(=O)Nc2ccccc2C(=O)O)cc1 [compound 8, 2-(4-Propoxybenzamido)benzoic acid]	60	103	74	–	–	–	–	–	–	–	–	–	–	–	–	–	–	–	–	–	–
CCOc1ccc(NS(=O)(=O)c2ccc(C(=O)O)cc2)cc1 [compound 4, 4-(N-(4-Ethoxyphenyl)sulfamoyl)benzoic acid]	83	101	100	–	–	–	–	–	–	–	–	–	–	–	–	–	–	–	–	–	–
CCCOc1cccc(C(=O)Nc2ccc(Br)cc2C(=O)O)c1 [compound 9, 5-Bromo-2-(3-propoxybenzamido)benzoic acid]	0	–	72	32 (≈ 84.6 µM)	> 512	64 (≈ 169 µM)	64 (≈ 169 µM)	16 (≈ 42.3 µM)	16 (≈ 42.3 µM)	> 512	> 512	16 (≈ 42.3 µM)	16 (≈ 42.3 µM)	16 (≈ 42.3 µM)	> 512	> 512	32 (≈ 84.6 µM)	32 (≈ 84.6 µM)	32 (≈ 84.6 µM)	8 (≈ 21.2 µM)	IC50 (PBP2a): 230 µM; IC50 (PBP2x 5204; read-out: PBP2x5204 IC50, in the presence of 0.01% Triton X-100): 155 µM; PBP2x5204 RA [%] (PBP2x 5204; residual activity of the enzyme at 500 µM inhibitor): 8%; MIC [18]: 1 µg/mL (≈ 2.64 µM); MIC [19]: 1 µg/mL (≈ 2.64 µM); MIC [20]: 1 µg/mL (≈ 2.64 µM)
